In data set [1] the target is USP1/UAF1 enzyme (Homo sapiens, UniProt O94782). Nature of the data set: USP1/UAF1 deubiquitination assay (ubiquitin-rhodamine 110 substrate). Conditions: read-out: USP1 IC50 (Ub-Rho). In kind it is biochemical. The method, boiled down: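 Cleavage of 150 nM ubiquitin-rhodamine 110 by 0.05 nM USP1/UAF1 was followed as fluorescence (Ex480/Em540, kinetic, 30 min) in Tris-HCl pH 7.8 buffer with EDTA, BSA, DTT and Tween-20. Compounds, top 10 μM, were preincubated with enzyme 10 min; % inhibition against no-enzyme and DMSO wells gave four-parameter IC50s.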

The nature of data set [2]: Liver microsomal metabolic stability, rat liver microsomes (RLM). The note with it: rat, liver microsomes, t1/2 (min) in RLM, 1 μM compound, 1 mg/mL microsomes, NADPH. On the technique in general: Liver microsomes are a subcellular fraction often used to study metabolism.
Procedure: Samples were prepared by adding 222.5 μL of a master solution (100 mM phosphate buffer and 1 mg/mL liver microsomes (HLM or RLM)) and 25 μL of a 10 mM NADPH solution to incubation plates, which were then warmed for 10 min. Each compound was separately dissolved in DMSO to prepare 10 mM stock solutions, which were then diluted to 100 μM with acetonitrile. A reaction was started by adding 2.5 μL of the 100 μM solution of each compound to separate incubation plates such that the final concentration of for each compound in each plate was 1 μM.
25 μL aliquots of each sample were taken at 0.5, 5, 10, 15, 20 and 30 minutes, and the reaction was stopped by adding 5 volumes of cold acetonitrile with IS (100 nM alprazolam, 200 nM caffeine and 100 nM tolbutamide). The samples were then centrifuged at 3,220 G for 30 minutes, and 100 μL of the supernatant fluid was mixed with 100 μL of ultra-pure H2O.
The samples were then analyzed by LC-MS/MS. Peak areas were determined from extracted ion chromatograms. Slope values (k) were determined by linear regression of the natural logarithm of the remaining percentage of the compound vs. incubation time curve. The in vitro half-life (in vitro t1/2) was determined from the slope value using the following equation:
The subject of data set [3] is Ub-PCNA levels in the nucleus of ES2 cells (USP1 activity). Nature of the data set: ES2 Ub-PCNA immunofluorescence (IF) assay. It counts as cell-based. Conditions: Homo sapiens, ES-2; ES2 cells, 3 hours, Ub-PCNA immunofluorescence; read-out: USP1 IC50 (Ub-PCNA). The procedure:
USP1 is a deubiquitinating enzyme that removes ubiquitin from mono-ubiquitinated Proliferating Cell Nuclear Antigen (Ub-PCNA). The levels of Ub-PCNA in the nucleus of cells can be used to assess the activity of USP1. An immunofluorescence assay can be established to monitor Ub-PCNA levels in the ovarian cancer cell line, ES2.
An assay can be performed by first plating 5000 ES2 cells per well in black 96 well plates (Corning #3904) and then incubating overnight at 37° C. and 5% CO2. Compounds, resuspended in DMSO, can be added to the cells, to a final DMSO concentration of 0.3%. Plates can be incubated at 37° C. and 5% CO2 for 3 hours.
Cells can be then fixed and stained by first removing the media from each plate and fixing the cells with −20° C. methanol for 5 minutes at room temperature. Fixation plates can be washed with Tris buffered saline with tween (Boston Bioproducts #IBB-855) 5 times for 5 minutes each. Plates can be blocked for 1 hour with 50 μl of Odyssey blocking buffer (Licor #327-50000) at room temperature with rocking. Block can be removed from all wells and 50 μl of primary antibody was added to each well. Ub-PCNA ab (Cell Signaling Technology #13439) can be diluted at 1:400 in Odyssey blocking buffer. Plates can be sealed and incubated overnight at 4° C. Primary antibodies can be removed from the plates and plates can be washed with Tris buffered saline with tween 5 times for 5 minutes. Plates can be stained for 1 hour at room temperature with rocking with 50 μl of secondary antibodies diluted 1:10,000 in Odyssey blocking buffer at room temperature (anti-rabbit Alexa 488). Antibodies can be removed from the plates and plates can be washed with Tris buffered saline with tween 3 times for 5 minutes. Plates can be washed once with DAPI (Chemometec #910-3012) stain diluted 1:5000 (Stock solution of 500 μg/ml) in tris buffered saline with tween for 5 minutes. DAPI stain can be removed and plates can be washed one additional time for 5 minutes with tris buffered saline with tween. Wash can be removed from the plate and 100 μl tris buffered saline with tween can be added back to all wells, Plates can be sealed with Foil seals or black plate seals and plates can be stored at 4° C. until they can be imaged.
Imaging of the plates can be performed by first locating the nuclei using the DAPI stain. A mask can be created by drawing a circle slightly smaller than each nucleus. Ub-PCNA intensities can be measured for each individual nucleus counted. A histogram of all Ub-PCNA nuclear intensities measured in untreated wells can be generated and a 95% cutoff can be established. This 95% cutoff can be used to determine the number of Positive cells that have Ub-PCNA values higher than the 95% cutoff. The number of positive cells can be expressed as a percentage by dividing by the total number of cells in the well. This percent positive value can be used to graph all data and to determine AC50 values.
USP1 is a deubiquitinating enzyme that removes ubiquitin from mono-ubiquitinated
Proliferating Cell Nuclear Antigen (Ub-PCNA). The levels of Ub-PCNA in the nucleus of cells was used to assess the activity of USP1. An immunofluorescence assay was established to monitor Ub-PCNA levels in the ovarian cancer cell line, ES2.
This assay was performed by first plating 5000 ES2 cells per well in black 96 well plates (Corning #3904) and then incubated overnight at 37° C. and 5% CO2. Compounds, resuspended in DMSO, were added to the cells, to a final DMSO concentration of 0.3%. Plates were incubated at 37° C. and 5% CO2 for 3 hours.
Cells were then fixed and stained by first removing the media from each plate and fixing the cells with −20° C. methanol for 5 minutes at room temperature. Following fixation plates were washed with Tris buffered saline with tween (Boston Bioproducts ABB-855) 5 times for 5 minutes each. Plates were blocked for 1 hour with 50μ.1 of Odyssey blocking buffer (Licor #327-50000) at room temperature with rocking. […]

Data set [4] is described as follows: Liver microsomal metabolic stability, human liver microsomes (HLM). The note with it: human, liver microsomes.
Data set [5] is described as follows: ADME solubility determination in PBS at pH 2.0 and pH 7.4. It counts as physicochemical. The note with it: phosphate buffered saline, 25 °C, thermodynamic from solid. An outline of the steps: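 Solubility was read by LC-MS/MS on centrifuged supernatants, calibrated to a known-concentration standard and corrected for dilution. Compound, dried down from 10 mM DMSO stock, was equilibrated 24 h at 25° C with shaking in PBS at pH 2.0 or pH 7.4.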

Where [6] appears, read: pH 2, aqueous buffer, PBS pH 2.0, 25° C., read-out: Solubility at pH 2.0.
[7] abbreviates: pH 7.4, aqueous buffer, PBS pH 7.4, 25° C., read-out: Solubility at pH 7.4.

Among the data in patent US20230219965A1 (KSQ Therapeutics, Inc., priority 2020, published 2023) are IC50, half-life and solubility values, retold here.

Read-outs that look alike come from different tables or passages of the source.

For orientation: IC50 means the midpoint of a concentration-inhibition curve. For orientation: half-life means how long it takes for the measured level to halve. Higher therefore signals slow decline. Broadly, the solubility is the dissolved amount per volume that the medium holds.

USP1/UAF1 enzyme, sequence (O94782 whole entry): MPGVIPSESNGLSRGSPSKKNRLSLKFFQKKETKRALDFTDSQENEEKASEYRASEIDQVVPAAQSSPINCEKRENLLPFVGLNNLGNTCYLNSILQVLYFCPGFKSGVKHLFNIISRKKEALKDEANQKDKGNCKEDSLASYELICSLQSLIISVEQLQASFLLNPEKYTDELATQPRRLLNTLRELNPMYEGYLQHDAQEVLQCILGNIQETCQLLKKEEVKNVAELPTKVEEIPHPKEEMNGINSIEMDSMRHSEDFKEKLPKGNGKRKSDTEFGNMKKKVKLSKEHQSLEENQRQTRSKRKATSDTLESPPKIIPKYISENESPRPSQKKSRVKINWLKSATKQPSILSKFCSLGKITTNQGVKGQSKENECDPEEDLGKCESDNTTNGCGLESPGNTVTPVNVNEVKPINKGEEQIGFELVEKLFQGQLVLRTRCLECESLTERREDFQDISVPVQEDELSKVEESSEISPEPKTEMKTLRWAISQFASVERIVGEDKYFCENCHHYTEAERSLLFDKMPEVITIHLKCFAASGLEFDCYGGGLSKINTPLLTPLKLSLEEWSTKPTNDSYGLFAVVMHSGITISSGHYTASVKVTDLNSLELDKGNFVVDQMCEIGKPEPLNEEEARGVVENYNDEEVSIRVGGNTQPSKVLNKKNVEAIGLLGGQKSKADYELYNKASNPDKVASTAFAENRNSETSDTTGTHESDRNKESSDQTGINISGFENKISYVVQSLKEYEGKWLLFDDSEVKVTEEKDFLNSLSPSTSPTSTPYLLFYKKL
USP1/UAF1 enzyme, sequence (Q8TAF3 whole entry partner): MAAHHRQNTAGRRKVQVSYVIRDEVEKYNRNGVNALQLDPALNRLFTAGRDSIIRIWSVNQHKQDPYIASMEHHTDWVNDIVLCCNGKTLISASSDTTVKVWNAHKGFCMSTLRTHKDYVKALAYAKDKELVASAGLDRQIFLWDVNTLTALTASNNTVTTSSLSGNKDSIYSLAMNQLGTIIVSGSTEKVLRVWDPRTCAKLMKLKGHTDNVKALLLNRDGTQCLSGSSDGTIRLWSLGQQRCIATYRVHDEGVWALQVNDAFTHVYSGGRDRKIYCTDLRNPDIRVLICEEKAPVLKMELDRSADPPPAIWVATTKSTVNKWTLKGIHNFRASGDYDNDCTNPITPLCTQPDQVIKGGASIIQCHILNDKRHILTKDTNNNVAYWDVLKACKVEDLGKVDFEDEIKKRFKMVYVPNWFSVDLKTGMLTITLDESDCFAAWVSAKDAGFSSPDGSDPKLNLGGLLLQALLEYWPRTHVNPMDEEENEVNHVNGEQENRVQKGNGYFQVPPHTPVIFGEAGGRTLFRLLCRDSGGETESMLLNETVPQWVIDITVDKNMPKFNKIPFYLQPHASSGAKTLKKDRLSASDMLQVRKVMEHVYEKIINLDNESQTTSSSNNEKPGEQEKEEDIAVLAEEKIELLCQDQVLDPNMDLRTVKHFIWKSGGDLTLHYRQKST

Consider `CCn1cc(C(F)(F)F)nc1-c1ccc(CN2C(=O)[C@H](C)Cn3nc(-c4c(OC)ncnc4C4CC4)nc32)cc1F` (single isomer, unassigned) [Example 348], for which the IC50 in data set [1] and in data set [3] was less than 100 nM in each case. In addition, the half-life at 1 μM in data set [2] and in data set [4] was more than 25 min each time. In addition, the solubility at 24 h in data set [5] (setting [6]) and in data set [5] (setting [7]) was not below 10 µM each time.

Regarding `CCn1cc(C(F)(F)F)nc1-c1ccc(CN2C(=O)[C@@H](C)Cn3nc(-c4c(OC)ncnc4C4CC4)nc32)cc1F` (single isomer, unassigned) [Example 349], the IC50 in data set [1] and in data set [3] was less than 100 nM throughout. For the same compound, the half-life at 1 μM in data set [2] and in data set [4] was more than 25 min throughout. The solubility at 24 h was not below 10 µM in data set [5] (setting [6]) and less than 10 µM in data set [5] (setting [7]).

Turning to `COc1ncnc(C2CC2)c1-c1cc2n(n1)CCC(=O)N2Cc1ccc(-c2nc(C(F)(F)F)cn2C)cc1` [Example 1, 2-(4-cyclopropyl-6-methoxypyrimidin-5-yl)-4-(4-(1-methyl-4-(trifluoromethyl)-1H-imidazol-2-yl)benzyl)-6,7-dihydropyrazolo[1,5-α]pyrimidin-5(4H)-one], the IC50 was less than 100 nM in data set [1] and 100 to 500 nM in data set [3]. Also, the half-life at 1 μM in data set [2] and in data set [4] was more than 25 min throughout. For the same compound, the solubility at 24 h was not below 10 µM in data set [5] (setting [6]) and less than 10 µM in data set [5] (setting [7]).

In the case of `COc1ncnc(C2CC2)c1-c1cc2n(n1)CCC(=O)N2Cc1ccc(-c2nc(C(F)(F)F)cn2C)c(F)c1` [Example 2, 2-(4-cyclopropyl-6-methoxypyrimidin-5-yl)-4-(3-fluoro-4-(1-methyl-4-(trifluoromethyl)-1H-imidazol-2-yl)benzyl)-6,7-dihydropyrazolo[1,5-a]pyrimidin-5(4H)-one], the IC50 in data set [1] was less than 100 nM; in data set [3], 100 to 500 nM. Further, the half-life at 1 μM in data set [2] and in data set [4] was more than 25 min throughout. Besides, the solubility at 24 h in data set [5] (setting [6]) and in data set [5] (setting [7]) was less than 10 µM throughout.

In the case of `Cc1cnn(C(C)C)c1-c1cc2n(n1)CCC(=O)N2Cc1ccc(-c2nc(C(F)(F)F)cn2C)cc1` [Example 6, 2-(1-isopropyl-4-methyl-1H-pyrazol-5-yl)-4-(4-(1-methyl-4-(trifluoromethyl)-1H-imidazol-2-yl)benzyl)-6,7-dihydropyrazolo[1,5-a]pyrimidin-5(4H)-one], the IC50 is less than 100 nM in data set [1] and more than 500 nM in data set [3]. Besides, the half-life at 1 μM in data set [2] and in data set [4] was less than 25 min in each case. The solubility at 24 h in data set [5] (setting [6]) and in data set [5] (setting [7]) was not below 10 µM throughout.

For the compound `COc1ncnc(C2CC2)c1-c1cc2n(n1)CCC(=O)N2Cc1ccc(-n2nc(C(F)(F)F)cc2OC)c(F)c1` [Example 7, 2-(4-cyclopropyl-6-methoxypyrimidin-5-yl)-4-(3-fluoro-4-(5-methoxy-3-(trifluoromethyl)-1H-pyrazol-1-yl)benzyl)-6,7-dihydropyrazolo[1,5-a]pyrimidin-5(4H)-one], the IC50 was less than 100 nM in data set [1] and 100 to 500 nM in data set [3]. The half-life at 1 μM in data set [2] and in data set [4] was more than 25 min each time. For the same compound, the solubility at 24 h in data set [5] (setting [6]) and in data set [5] (setting [7]) was less than 10 µM in each case.

Turning to `CCn1cc(C(F)(F)F)nc1-c1ccc(CN2C(=O)CCn3nc(-c4c(C)cnn4C(C)C)cc32)cc1` [Example 9, 4-(4-(1-ethyl-4-(trifluoromethyl)-1H-imidazol-2-yl)benzyl)-2-(1-isopropyl-4-methyl-1H-pyrazol-5-yl)-6,7-dihydropyrazolo[1,5-a]pyrimidin-5(4H)-one], the IC50 in data set [1] and in data set [3] was less than 100 nM each time. Also, the half-life at 1 μM in data set [2] and in data set [4] was less than 25 min throughout. In addition, the solubility at 24 h in data set [5] (setting [6]) and in data set [5] (setting [7]) was not below 10 µM in each case.

Consider `Cc1cnn(C(C)C)c1-c1cc2n(n1)CCC(=O)N2Cc1ccc(-n2nc(C(F)(F)F)cc2C)cc1` [Example 10, 2-(1-isopropyl-4-methyl-1H-pyrazol-5-yl)-4-(4-(5-methyl-3-(trifluoromethyl)-1H-pyrazol-1-yl)benzyl)-6,7-dihydropyrazolo[1,5-a]pyrimidin-5(4H)-one], for which the concentration for half-maximal inhibition (IC50) was less than 100 nM in data set [1] and 100 to 500 nM in data set [3]. In addition, the half-life at 1 μM in data set [2] and in data set [4] was less than 25 min each time. The solubility at 24 h in data set [5] (setting [6]) and in data set [5] (setting [7]) was less than 10 µM throughout.

With `Cc1cnn(C(C)C)c1-c1cc2n(n1)CCC(=O)N2Cc1ccc(-c2nc(C(F)(F)F)nn2C)cc1` [Example 11, 2-(1-isopropyl-4-methyl-1H-pyrazol-5-yl)-4-(4-(1-methyl-3-(trifluoromethyl)-1H-1,2,4-triazol-5-yl)benzyl)-6,7-dihydropyrazolo[1,5-a]pyrimidin-5(4H)-one], the IC50 in data set [1] and in data set [3] was more than 500 nM each time. Besides, the half-life at 1 μM in data set [2] and in data set [4] was less than 25 min each time. For the same compound, the values for the solubility at 24 h in data set [5] (setting [6]) and in data set [5] (setting [7]) were not below 10 µM and less than 10 µM, respectively.

Turning to `COc1cc(C(F)(F)F)nn1-c1ccc(CN2C(=O)CCn3nc(-c4c(C)cnn4C(C)C)cc32)cc1F` [Example 12, 4-(3-fluoro-4-(5-methoxy-3-(trifluoromethyl)-1H-pyrazol-1-yl)benzyl)-2-(1-isopropyl-4-methyl-1H-pyrazol-5-yl)-6,7-dihydropyrazolo[1,5-a]pyrimidin-5(4H)-one], the IC50 is less than 100 nM in data set [1] and 100 to 500 nM in data set [3]. Further, the half-life at 1 μM in data set [2] and in data set [4] was less than 25 min in each case. Also, the solubility at 24 h in data set [5] (setting [6]) and in data set [5] (setting [7]) was less than 10 µM throughout.

`COc1cc(C(F)(F)F)nn1-c1ccc(CN2C(=O)CCn3nc(-c4c(Cl)cnn4C(C)C)cc32)cc1F` [Example 14, 2-(4-chloro-1-isopropyl-1H-pyrazol-5-yl)-4-(3-fluoro-4-(5-methoxy-3-(trifluoromethyl)-1H-pyrazol-1-yl)benzyl)-6,7-dihydropyrazolo[1,5-a]pyrimidin-5(4H)-one]: the IC50 in data set [1] and in data set [3] was less than 100 nM each time. Besides, the half-life at 1 μM in data set [2] and in data set [4] was more than 25 min throughout. Moreover, the solubility at 24 h in data set [5] (setting [6]) and in data set [5] (setting [7]) was less than 10 µM in each case.
